Test results reported in patent US8399206B2, “Methods for diagnosis, prognosis and methods of treatment” (Nodality, Inc., priority 2008, dated 2013).

What was measured:
[1] = tested on: AML BMMC leukemic blasts; experiment: SCNP modulated signaling assay, AML study No. 2 (BMMC, CR vs NR, clinical sub-groups); assay type: cell-based, human
Description: Two independent sets of cryopreserved samples were analyzed sequentially. The first set consisted of 35 peripheral blood mononuclear cell (PBMC) samples derived from AML patients. The second set consisted of 134 cryopreserved bone marrow mononuclear cell (BMMC) samples derived from AML patients. These samples were the same samples used in the previous examples. Sample inclusion criteria required collection prior to initiation of induction chemotherapy, AML classification by the French-American-British (FAB) criteria as M0 through M7 (excluding M3) and availability of clinical annotations.
In the first study, induction chemotherapy consisted of at least one cycle of standard cytarabine-based induction therapy (i.e. daunorubicin 60 mg/m^2×3 days, cytarabine 100-200 mg/m^2 continuous infusion×7 days); responses were measured after one cycle of induction therapy. In the second study, cytarabine (200 mg/m^2 to 3 g/m^2) was used in combination with an anthracycline (daunorubicin or idarubicin) or an additional anti-metabolite (e.g. fludarabine or troxacitabine), and sometimes, an experimental agent (Table 16). […] Standard clinical and laboratory criteria were used for defining complete response (CR) in both studies. […] Classified as “CRp,” these samples were included in the CR group for all primary analysis. The univariate analyses were also repeated with the CRp patients classified into the NR sample group for sensitivity analysis.
Cyropreserved samples were thawed at […], washed and centrifuged in PBS, 10% FBS and 2 mM EDTA. The cells were re-suspended, filtered to remove debris and washed in RPMI cell culture media, 1% FBS, then stained with Live/Dead Fixable Aqua Viability Dye to distinguish non-viable cells. The cells were then re-suspended in RPMI, 1% FBS, aliquoted to 100,000 cells/condition and rested for 1-2 hours at 37° C. prior to SCNP assays. Each condition included two to five phenotypic markers for cell population gating (eg, CD45, CD33), up to three intracellular stains or up to three additional surface markers or control antibodies for an eight-color flow cytometry assay.
Functional assays were performed as previously described. Cells were incubated with modulators (Table 18), at 37° C. for 3-15 minutes, fixed with 1.6% paraformaldehyde (final concentration) for 10 minutes at 37° C., pelleted and permeabilized with 100% ice-cold methanol and stored at −80° C.
Data was acquired using FACS DIVA software on both LSR II and CANTO II Flow Cytometers (BD). For all analyses, dead cells and debris were excluded by forward scatter (FSC), side scatter (SSC), and Amine Aqua Viability Dye measurement. Leukemic cells were identified as cells that lacked the characteristics of mature lymphocytes (CD45^++, CD33^−) and that fit the CD45 and CD33 versus right-angle light-scatter characteristics consistent with myeloid leukemia cells.
The median fluorescence intensity (MFI) was computed for each node from the fluorescence intensity levels for the cells in the myeloid population. The MFI values were then used to compute a variety of metrics by comparing them to baseline or background values, including the unmodulated condition, cellular autofluorescence and antibody isotype controls. The following metrics were computed: • 1. Basal MFI (“Basal”)=log2(MFIUnmodulated Stained)−log2(MFIGated Unstained (Autofluoresence)), designed to measure the basal levels of a certain protein under unmodulated conditions. • 2.

[2] = tested on: AML blasts; experiment: SCNP / phospho-flow modulated signaling assay, AML study No. 1 (PBMC at diagnosis, CR vs NR); assay type: cell-based, human
Description: The present illustrative example represents how to analyze cells in one embodiment of the present invention. There are several steps in the process, such as the stimulation step, the staining step and the flow cytometry step. The stimulation step of the phospho-flow procedure can start with vials of frozen cells and end with cells fixed and permeabilized in methanol. Then the cells can be stained with an antibody directed to a particular protein of interest and then analyzed using a flow cytometer.
Frozen cells are thawed in a 37° C. water bath and gently resuspended in the vial and transferred to the 15 mL conical tube. The 15 mL tube is centrifuged at 930 RPM (200×g) for 8 minutes at room temperature. The supernatant is aspirated and the pellet is gently resuspended in 1 mL media A. The cell suspension is filtered through a 70 um cell strainer into a new 15 mL tube. The cell strainer is rinsed with 1 mL media A and another 12 ml of media A into the 15 mL tube. The cells are mixed into an even suspension. A 20 μL aliquot is immediately removed into a 96-well plate containing 180 μL PBS+4% FBS+CD45 Alexa 700+PI to determine cell count and viability post spin. After the determination, the 15 mL tubes are centrifuged at 930 RPM (200×g) for 8 minutes at room temperature. The supernatant is aspirated and the cell pellet is gently resuspended in 4 mL PBS+4 μL Amine Aqua and incubated for 15 min in a 37° C. incubator. 10 mL RPMI+1% FBS is added to the cell suspension and the tube is inverted to mix the cells. The 15 mL tubes are centrifuged at 930 RPM (200×g) for 8 minutes at room temperature. The cells are resuspended in Media A at the desired cell concentration (1.25×10^6/mL). For samples with low numbers of cells (<18.5×10^6), the cells are resuspended in up to 15 mL media. For samples with high numbers of cells (>18.5×10^6), the volume is raised to 10 mL with media A and the desired volume is transferred to a new 15 mL tube, and the cell concentration is adjusted to 1.25×10^6 cells/ml. 1.6 mL of the above cell suspension (concentration at 1.25×10^6 cells/ml) is transferred into wells of a multi-well plate. From this plate, 80 ul is dispensed into each well of a subsequent plate. The plates are covered with a lid (Nunc) and placed in a 37° C. incubator for 2 hours to rest.
A concentration for each stimulant that is five folds more (5×) than the final concentration is prepared using Media A as diluent. 5× stimuli are arrayed into wells of a standard 96 well v-bottom plate that correspond to the wells on the plate with cells to be stimulated.
Adding the stimulant: The cell plate(s) are taken out of the incubator and placed in a 37° C. water bath next to the pipette apparatus. The cell plate is taken from the water bath and gently swirled to resuspend any settled cells. With pipettor, the stimulant is dispensed into the cell plate and vortexed at “7” for 5 seconds. The deep well plate is put back into the water bath.
Adding Fixative: 200 μl of the fixative solution (final concentration at 1.6%) is dispensed into wells and then mixed on the titer plate shaker on high for 5 seconds. The plate is covered with foil sealer and incubated in a 37° C. water bath for 10 minutes. The plate is spun for 6 minutes at 2000 rpm at room temperature. The cells are aspirated using a 96 well plate aspirator (VP Scientific). The plate is vortexed to resuspend cell pellets in the residual volume. The pellet is ensured to be dispersed before the Methanol step (see cell permeabilization) or clumping will occur.
Cell Permeabilization: Permeability agent, for example methanol, is added slowly and while the plate is vortexing. To do this, the cell plate is placed on titer plate shaker and made sure it is secure. The plate is set to shake using the highest setting. A pipetter is used to add 0.6 mls of 100% methanol to the plate wells. The plate(s) are put on ice until this step has been completed for all plates.

[3] = Study No. 2, all patients, CR samples
[4] = Study No. 1 sensitivity analysis, CR samples
[5] = Study No. 1 sensitivity analysis, NR samples incl. CRp
[6] = Study No. 2, all patients, CR samples, negative = down regulation
[7] = Study No. 2, all patients, NR samples

Molecule: CCCCCCCCCCCCCC(=O)O[C@@H]1[C@@H](C)[C@@]2(O)[C@@H](C=C(CO)C[C@]3(O)C(=O)C(C)=C[C@@H]23)[C@@H]2C(C)(C)[C@]12OC(C)=O [PMA, reference compound]
- Mean Value of CRs, p-Erk Fold [1, 3]: 2.82
- Mean Value of CRs, p-CREB Total Phospho ([1]; Study No. 2, patients less than 60 years old, CR samples): 3.72
- Mean Value of NRs, p-CREB Total Phospho ([1]; Study No. 2, patients less than 60 years old, NR samples): 5.00

Molecule: EPO
- Mean Value of CRs, p-Stat1 Total Phospho [2, 4]: 0.17
- Mean Value of CRs, p-Stat3 Total Phospho [2, 4]: 0.64
- Mean Value of NRs, p-Stat1 Total Phospho [2, 5]: 0.42
- Mean Value of NRs, p-Stat3 Total Phospho [2, 5]: 1.23

Molecule: GM-CSF: granulocyte macrophage stimulating factor
- increase in p-Akt and p-S6 levels ([2]; Staurosporine Resistant category vs other apoptosis categories): greatest increase in p-Akt and p-S6 levels
- Mean Value of CRs, p-Stat3 Total Phospho [2, 4]: 0.83
- Mean Value of NRs, p-Stat3 Total Phospho [2, 5]: 1.23
- Jak/Stat response (G-CSF: p-Stat3, p-Stat5; GM-CSF: p-Stat5) ([2]; all samples of the Staurosporine Resistant apoptosis category): Robust Jak/Stat responses

Molecule: IGF-1
- Mean Value of CRs, p-Plcγ2 Total Phospho [2, 4]: 1.82
- Mean Value of CRs, p-CREB Alexa488 Total Phospho ([2]; Study No. 1 sensitivity analysis, CR samples, Alexa488 conjugate): 1.11
- Mean Value of CRs, p-CREB PE Total Phospho ([2]; Study No. 1 sensitivity analysis, CR samples, PE conjugate): 1.42
- Mean Value of NRs, p-Plcγ2 Total Phospho [2, 5]: 2.76
- Mean Value of NRs, p-CREB Alexa488 Total Phospho ([2]; Study No. 1 sensitivity analysis, NR samples incl. CRp, Alexa488 conjugate): 1.62
- Mean Value of NRs, p-CREB PE Total Phospho ([2]; Study No. 1 sensitivity analysis, NR samples incl. CRp, PE conjugate): 2.29

Molecule: IL-6: interleukin 6, cytokine modulator
- Mean Value of CRs, p-CREB Total Phospho [2, 4]: 1.58
- Mean Value of CRs, p-Stat3 Total Phospho [2, 4]: 1.08
- Mean Value of NRs, p-CREB Total Phospho [2, 5]: 2.44
- Mean Value of NRs, p-Stat3 Total Phospho [2, 5]: 1.81
- Mean Value of CRs, p-Stat3 Total Phospho [1, 3]: 1.76
- Mean Value of CRs, p-Stat5 Fold [1, 3]: 0.13
- Mean Value of CRs, p-Stat1 Fold [1, 6]: −0.01
- Mean Value of CRs, p-Stat3 Fold [1, 6]: 0.12
- Mean Value of NRs, p-Stat1 Fold [1, 7]: 0.26
- Mean Value of NRs, p-Stat3 Fold [1, 7]: 1.09
- Mean Value of NRs, p-Stat3 Total Phospho [1, 7]: 2.98
- Mean Value of NRs, p-Stat5 Fold [1, 7]: 0.55

Molecule: IL-10: interleukin 10, cytokine modulator
- Mean Value of CRs, p-Stat1 Total Phospho [2, 4]: 0.17
- Mean Value of CRs, p-Stat3 Total Phospho [2, 4]: 0.72
- Mean Value of NRs, p-Stat1 Total Phospho [2, 5]: 0.47
- Mean Value of NRs, p-Stat3 Total Phospho [2, 5]: 1.69
- Mean Value of CRs, p-Stat5 Fold [1, 3]: 0.09
- Mean Value of CRs, p-Stat3 Fold [1, 6]: 0.08
- Mean Value of NRs, p-Stat3 Fold [1, 7]: 0.39
- Mean Value of CRs, p-Stat5 Fold ([1]; Study No. 2, patients with de novo AML, CR samples): 0.06

B1: M-CSF (protein, UniProt P09603 33-554, looked up)
Macrophage colony-stimulating …: EEVSEYCSHMIGSGHLQSLQRLIDSQMETSCQITFEFVDQEQLKDPVCYLKKAFLLVQDIMEDTMRFRDNTPNAIAIVQLQELSLRLKSCFTKDYEEHDKACVRTFYETPLQLLEKVKNVFNETKNLLDKDWNIFSKNCNNSFAECSSQDVVTKPDCNCLYPKAIPSSDPASVSPHQPLAPSMAPVAGLTWEDSEGTEGSSLLPGEQPLHTVDPGSAKQRPPRSTCQSFEPPETPVVKDSTIGGSPQPRPSVGAFNPGMEDILDSAMGTNWVPEEASGEASEIPVPQGTELSPSRPGGGSMQTEPARPSNFLSASSPLPASAKGQQPADVTGTALPRVGPVRPTGQDWNHTPQKTDHPSALLRDPPEPGSPRISSLRPQGLSNPSTLSAQPQLSRSHSSGSVLPLGELEGRRSTRDRRSPAEPEGGPASEGAARPLPRFNSVPLTDTGHERQSEGSFSPQLQESVFHLLVPSVILVLLAVGGLLFYRWRRRSHQEPQRADSPLEQPEGSPLTQDDRQVELPV
- Mean Value of CRs, p-Akt Fold [2, 4]: −0.16
- Mean Value of CRs, p-CREB Total Phospho [2, 4]: 1.26
- Mean Value of CRs, p-Plcγ2 Total Phospho [2, 4]: 1.79
- Mean Value of NRs, p-Akt Fold [2, 5]: 0.05
- Mean Value of NRs, p-CREB Total Phospho [2, 5]: 1.76
- Mean Value of NRs, p-Plcγ2 Total Phospho [2, 5]: 2.8

B2: CD40L (protein, UniProt P29965 113-261, looked up)
CD40 ligand, soluble form: MQKGDQNPQIAAHVISEASSKTTSVLQWAEKGYYTMSNNLVTLENGKQLTVKRQGLYYIYAQVTFCSNREASSQAPFIASLCLKSPGRFERILLRAANTHSSAKPCGQQSIHLGGVFELQPGASVFVNVTDPSQVSHGTGFTSFGLLKL
- Mean Value of CRs, p-CREB Total Phospho [2, 4]: 1.37
- Mean Value of CRs, p-Erk Total Phospho [2, 4]: 1.18
- Mean Value of NRs, p-CREB Total Phospho [2, 5]: 2.67
- Mean Value of NRs, p-Erk Total Phospho [2, 5]: 1.62

B3: IFNg: interferon gamma, cytokine modulator (protein, UniProt P01579 24-161, looked up)
Interferon gamma: QDPYVKEAENLKKYFNAGHSDVADNGTLFLGILKNWKEESDRKIMQSQIVSFYFKLFKNFKDDQSIQKSVETIKEDMNVKFFNSNKKKRDDFEKLTNYSVTDLNVQRKAIHELIQVMAELSPAAKTGKRKRSQMLFRG
- Mean Value of CRs, p-Stat1 Fold [2, 4]: 0.45
- Mean Value of CRs, p-Stat1 Total Phospho [2, 4]: 0.67
- Mean Value of CRs, p-Stat3 Total Phospho [2, 4]: 0.68
- Mean Value of CRs, p-Stat5 Total Phospho [2, 4]: 1.62
- Mean Value of NRs, p-Stat1 Total Phospho [2, 5]: 1.27
- Mean Value of NRs, p-Stat3 Total Phospho [2, 5]: 1.3
- Mean Value of NRs, p-Stat5 Total Phospho [2, 5]: 2.35
- Mean Value of NRs, p-Stat1 Fold ([2]; Study No. 1 sensitivity analysis, NR samples incl. CRp, negative = down regulation): 0.91
- Mean Value of CRs, p-Stat3 Fold [1, 6]: −0.02
- Mean Value of NRs, p-Stat3 Fold [1, 7]: 0.2
